Experimental data published in US20150290176A1, “USE OF MTOR INHIBITORS TO TREAT VASCULAR COGNITIVE IMPAIRMENT” (THE BOARD OF REGENTS OF THE UNIVERSITY OF TEXAS SYSTEM, priority 2012, published 2015).
Like-named read-outs stand apart in the source and are kept apart here.

Tests used:
cortical vessels = experiment: In vivo 2-photon imaging of cortical vessel diameter; parameters: species or system mouse
From the text: (§1) In vivo imaging experiments. Details of experimental procedures were identical to our previously published protocols (Zheng, et al., 2010). Briefly, mice were anesthetized with volatile isoflurane through a nosecone (3% induction, 1.5% maintenance). The depth of anesthesia was monitored by regular checking of whisker movement and the pinch withdrawal reflex of the hind limb and tail. Also, during surgery and imaging, three main vital signs including heart rate, respiratory rate, and oxygen saturation were periodically assessed by use of the MouseOx system (STARR Life Sciences). Body temperature was maintained at 37° C. by use of feedback-controlled heating pad (Gaymar T/Pump). Initially, the scalp was shaved, incised along the midline and retracted to expose the dorsal skull. Then removal of periosteum by forceps and cleaning of skull by a sterile cotton swab were performed. A stainless steel head plate was glutted (VetBond, 3M, St. Paul, Minn.) to dorsal skull and screwed to a custom-made stereotaxic frame. To create a thin-skull cranial window over the somotosensory cortex, skull was initially thinned by high-speed electric drill (Fine Science Tools, Foster City, Calif.) and subsequently thinned to approximate 50 μm by using a surgical blade under a dissecting microscope (Nikon SMZ800). […] The diameter of blood vessels was analyzed by Image J plugin vessel diameter. […]

[1] = tested on: NO production in cortical vessels; experiment: In vivo imaging of NO production in cortical vessels with NO-sensitive probe DAF-FM; parameters: species or system mouse; details: L-NAME 30 mg/kg intraperitoneally before rapamycin
From the text: as §1

AD mice = experiment: Cerebral blood flow by MRI continuous arterial spin labeling; type: in vivo, mouse; details: rapamycin-fed 16 weeks, then L-NAME for 4 additional weeks
Procedure: Rapamycin treatment. Mice were fed chow containing either microencapsulated enteric-coated rapamycin at 2.24 mg/kg or a control diet as described by Harrison et al., 2009. Rapamycin was used at 14 mg per kg food (verified by HPLC). On the assumption that the average mouse weighs 30 gm and consumes 5 gm of food/day, this dose supplied 2.24 mg rapamycin per kg body weight/day (Harrison, et al., 2009). All mice were given ad libitum access to rapamycin or control food and water for the duration of the experiment. Body weights and food intake were measured weekly. […] Littermates (transgenic and non-transgenic mice) were housed together, thus we could not distinguish effects of genotype on food consumption. […]
Animal Preparation for Functional Neuroimaging. […] Respiration rate (90-130 bpm) and rectal temperature (37±0.5° C.) were continuously monitored. Heart rate and blood oxygen saturation level (SaO2) were recorded using a MouseOx system (STARR Life Science Corp., Oakmont, Pa.) and maintained within normal physiological ranges.
Cerebral Blood Flow. Quantitative CBF (with unit of […]) was measured using the MRI based continuous arterial spin labeling (CASL) techniques (Duong, et al., 2000; Muir, et al., 2008) on a horizontal 7T/30 cm magnet and a 40G/cm BGA12S gradient insert (Bruker, Billerica, Mass.). […]

[2] = Rapamycin levels in brain regions of AD mice chronically fed rapamycin-supplemented chow; type: in vivo; details: PDAPP transgenic (AD mice), mouse, oral, 2.24 mg/kg body weight/day, AD mice chronically fed rapamycin chow (2.24 mg/kg/day)
Procedure: The inventors used magnetic resonance imaging (MRI) arterial spin labeling (ASL) techniques in vivo, as well as other functional imaging, in vivo optical imaging, and behavioral and biochemical tools to determine whether rapamycin treatment affects the progression of established deficits in the transgenic PDAPP mouse model of Alzheimer's Disease (Galvan, et al., 2005; Hsia, et al., 1999; Mucke, et al., 2000) (“AD mice”). AD mice and unaffected littermates were treated with rapamycin after the onset of AD-like impairments at 7 months of age (Galvan, et al., 2005; Hsia, et al., 1999; Mucke, et al., 2000) for a total of 16 weeks. Rapamycin levels in brain regions of AD mice chronically fed with rapamycin ranged from 0.98 to 2.40 pg/mg. Levels in hippocampus were 1.55 pg/mg (see FIG. 5).
Rapamycin treatment. Mice were fed chow containing either microencapsulated enteric-coated rapamycin at 2.24 mg/kg or a control diet as described by Harrison et al., 2009. Rapamycin was used at 14 mg per kg food (verified by HPLC). On the assumption that the average mouse weighs 30 gm and consumes 5 gm of food/day, this dose supplied 2.24 mg rapamycin per kg body weight/day (Harrison, et al., 2009). All mice were given ad libitum access to rapamycin or control food and water for the duration of the experiment. Body weights and food intake were measured weekly. […]

[3] = Body weight and food intake during rapamycin feeding; type: in vivo, mouse
Procedure: Rapamycin treatment. Mice were fed chow containing either microencapsulated enteric-coated rapamycin at 2.24 mg/kg or a control diet as described by Harrison et al., 2009. Rapamycin was used at 14 mg per kg food (verified by HPLC). On the assumption that the average mouse weighs 30 gm and consumes 5 gm of food/day, this dose supplied 2.24 mg rapamycin per kg body weight/day (Harrison, et al., 2009). All mice were given ad libitum access to rapamycin or control food and water for the duration of the experiment. Body weights and food intake were measured weekly. […] Littermates (transgenic and non-transgenic mice) were housed together, thus we could not distinguish effects of genotype on food consumption. Even though there were no differences in food consumption, body weights of rapamycin-fed non-transgenic, but not transgenic, females increased moderately during treatment, (6.8% increase for rapamycin-fed vs control-fed non-transgenic females). The higher increase in body weight for non-transgenic animals is not unexpected, since non-transgenic animals of both genders tend to be slightly (1-3 g) heavier than AD transgenic.

concentration at 16 weeks ([2]; hippocampus, read-out: Rapamycin levels in hippocampus) [ng/g] | concentration at 16 weeks ([2]; range over brain regions, read-out: Rapamycin levels in brain regions) [ng/g] | Structure (SMILES) | Effect of L-NAME pretreatment on rapamycin-induced vasodilation (cortical vessels; L-NAME 30 mg/kg intraperitoneally before rapamycin) | Effect of L-NAME pretreatment on rapamycin-induced NO release [1] | CBF in rapamycin-fed AD mice injected with L-NAME (AD mice) | Food consumption ([3]; control- vs rapamycin-fed groups) | Body weight increase, rapamycin-fed vs control-fed ([3]; non-transgenic females, during treatment) [%] | Increase in diameter of small and medium-sized cortical vessels (cortical vessels; rapamycin 10 mg/kg intraperitoneally, 10 min after administration)
 |  | COC(=O)[C@@H](N)CCCNC(=N)N[N+](=O)[O-] [L-NAME, L-NG-Nitroarginine methyl ester] | abrogated | abrogated | CBF deficits comparable to control-fed AD mice |  |  | 
1.55 | 0.98 to 2.4 | CO[C@H]1C[C@@H]2CC[C@@H](C)[C@@](O)(O2)C(=O)C(=O)N2CCCC[C@H]2C(=O)O[C@H]([C@H](C)C[C@@H]2CC[C@@H](O)[C@H](OC)C2)CC(=O)[C@H](C)/C=C(\C)[C@@H](O)[C@@H](OC)C(=O)[C@H](C)C[C@H](C)/C=C/C=C/C=C/1C [rapamycin] |  |  |  | comparable | 6.8 | 23-35%
